Source: the CheMixHub viscosity set

Assay: xn = mol fraction of the nth substance listed

O=P(O)(O)O + O
Settings | viscosity [mPa·s]
293.15 K, 101 kPa, x1 = 0.404 | 27.7
293.15 K, 101 kPa, x1 = 0.441 | 32.01
293.15 K, 101 kPa, x1 = 0.504 | 46.83
293.15 K, 101 kPa, x1 = 0.537 | 54.26
293.15 K, 101 kPa, x1 = 0.574 | 64.47
293.15 K, 101 kPa, x1 = 0.603 | 69.15
293.15 K, 101 kPa, x1 = 0.616 | 75.28
293.15 K, 101 kPa, x1 = 0.626 | 79.2
298 K, 101.33 kPa, x1 = 0.0038 | 0.939
298 K, 101.33 kPa, x1 = 0.007 | 0.979
298 K, 101.33 kPa, x1 = 0.014 | 1.075
298 K, 101.33 kPa, x1 = 0.0215 | 1.191
298 K, 101.33 kPa, x1 = 0.029 | 1.307
298 K, 101.33 kPa, x1 = 0.0376 | 1.457
298 K, 101.33 kPa, x1 = 0.0462 | 1.62
298 K, 101.33 kPa, x1 = 0.0537 | 1.786
298 K, 101.33 kPa, x1 = 0.0604 | 1.955
298 K, 101.33 kPa, x1 = 0.0714 | 2.204
298 K, 101.33 kPa, x1 = 0.0832 | 2.521
298 K, 101.33 kPa, x1 = 0.0925 | 2.842
298 K, 101.33 kPa, x1 = 0.1 | 3.033
298 K, 101.33 kPa, x1 = 0.106 | 3.198
298 K, 101.33 kPa, x1 = 0.111 | 3.378
298 K, 101.33 kPa, x1 = 0.151 | 4.902
298 K, 101.33 kPa, x1 = 0.2128 | 7.936
298 K, 101.33 kPa, x1 = 0.2654 | 11.32
298 K, 101.33 kPa, x1 = 0.311 | 14.88
298 K, 101.33 kPa, x1 = 0.3511 | 18.8
298 K, 101.33 kPa, x1 = 0.3871 | 22.93
298 K, 101.33 kPa, x1 = 0.422 | 27.24
298 K, 101.33 kPa, x1 = 0.4737 | 35.19
298 K, 101.33 kPa, x1 = 0.5388 | 46.3
298 K, 101.33 kPa, x1 = 0.6043 | 59.76
298.15 K, 100 kPa, x2 = 0.333 | 70.64
298.15 K, 101 kPa, x1 = 0.0018 | 0.9162
298.15 K, 101 kPa, x1 = 0.0054 | 0.9543
298.15 K, 101 kPa, x1 = 0.0089 | 1
298.15 K, 101 kPa, x1 = 0.012 | 1.054
298.15 K, 101 kPa, x1 = 0.016 | 1.089
298.15 K, 101 kPa, x1 = 0.404 | 24.33
298.15 K, 101 kPa, x1 = 0.441 | 27.61
298.15 K, 101 kPa, x1 = 0.504 | 37.59
298.15 K, 101 kPa, x1 = 0.537 | 43.17
298.15 K, 101 kPa, x1 = 0.574 | 50.35
298.15 K, 101 kPa, x1 = 0.603 | 54.12
298.15 K, 101 kPa, x1 = 0.616 | 60.3
298.15 K, 101 kPa, x1 = 0.626 | 64.75
303.15 K, 100 kPa, x2 = 0.333 | 55.6
303.15 K, 101 kPa, x1 = 0.0018 | 0.8163
303.15 K, 101 kPa, x1 = 0.0054 | 0.8526
303.15 K, 101 kPa, x1 = 0.0089 | 0.8928
303.15 K, 101 kPa, x1 = 0.012 | 0.9281
303.15 K, 101 kPa, x1 = 0.016 | 0.9679
303.15 K, 101 kPa, x1 = 0.404 | 20.3
303.15 K, 101 kPa, x1 = 0.441 | 23.66
303.15 K, 101 kPa, x1 = 0.504 | 30.35
303.15 K, 101 kPa, x1 = 0.537 | 34.61
303.15 K, 101 kPa, x1 = 0.574 | 38.68
303.15 K, 101 kPa, x1 = 0.603 | 43.03
303.15 K, 101 kPa, x1 = 0.616 | 46.81
303.15 K, 101 kPa, x1 = 0.626 | 52.57
308.15 K, 100 kPa, x2 = 0.333 | 46.73
308.15 K, 101 kPa, x1 = 0.0018 | 0.7331
308.15 K, 101 kPa, x1 = 0.0054 | 0.763
308.15 K, 101 kPa, x1 = 0.0089 | 0.794
308.15 K, 101 kPa, x1 = 0.012 | 0.84
308.15 K, 101 kPa, x1 = 0.016 | 0.8774
308.15 K, 101 kPa, x1 = 0.404 | 17.53
308.15 K, 101 kPa, x1 = 0.441 | 19.85
308.15 K, 101 kPa, x1 = 0.504 | 24.19
308.15 K, 101 kPa, x1 = 0.537 | 27.64
308.15 K, 101 kPa, x1 = 0.574 | 31.89
308.15 K, 101 kPa, x1 = 0.603 | 33.9
308.15 K, 101 kPa, x1 = 0.616 | 37.64
308.15 K, 101 kPa, x1 = 0.626 | 41.08
313.15 K, 100 kPa, x2 = 0.333 | 39.76
313.15 K, 101 kPa, x1 = 0.404 | 14.63
313.15 K, 101 kPa, x1 = 0.441 | 17.7
313.15 K, 101 kPa, x1 = 0.504 | 21.48
313.15 K, 101 kPa, x1 = 0.537 | 22.64
313.15 K, 101 kPa, x1 = 0.574 | 25.3
313.15 K, 101 kPa, x1 = 0.603 | 27.25
313.15 K, 101 kPa, x1 = 0.616 | 29.46
313.15 K, 101 kPa, x1 = 0.626 | 32.1
318.15 K, 100 kPa, x2 = 0.333 | 32.46
323.15 K, 100 kPa, x2 = 0.333 | 27.57

CCOP(OCC)OCC + c1ccncc1
298.15 K, 101 kPa
Settings | viscosity [mPa·s]
x1 = 0.2 | 0.792
x1 = 0.4 | 0.76
x1 = 0.6 | 0.738
x1 = 0.8 | 0.707

CC(C)COCCO + O
298.15 K, 101 kPa
Settings | viscosity [mPa·s]
x1 = 0.0037 | 0.9
x1 = 0.016 | 1.2
x1 = 0.0469 | 2.4
x1 = 0.0611 | 2.7
x1 = 0.11 | 3.65
x1 = 0.177 | 4.27
x1 = 0.263 | 4.4
x1 = 0.764 | 3.7

CC(=O)OCCC(C)C + ClC(Cl)(Cl)Cl
303.15 K, 101.3 kPa
Settings | viscosity [mPa·s]
x1 = 0.1037 | 0.8143
x1 = 0.1985 | 0.8011
x1 = 0.302 | 0.7904
x1 = 0.4018 | 0.7782
x1 = 0.5027 | 0.7656
x1 = 0.603 | 0.7549
x1 = 0.7015 | 0.7451
x1 = 0.7985 | 0.7325
x1 = 0.9013 | 0.7155

OCCC(O)CO (stereo not given) + O
viscosity [mPa·s], 101 kPa
Settings | 293.15 K | 298.15 K | 303.15 K | 308.15 K | 313.15 K | 318.15 K | 323.15 K
x1 = 0.005 | 1.089 | 0.984 | 0.889 | 0.798 | 0.7 | 0.656 | 0.595
x1 = 0.01 | 1.271 | 1.096 | 0.968 | 0.863 | 0.769 | 0.703 | 0.626
x1 = 0.015 | 1.46 | 1.193 | 1.067 | 0.942 | 0.853 | 0.77 | 0.678
x1 = 0.02 | 1.617 | 1.328 | 1.195 | 1.058 | 0.937 | 0.857 | 0.732

CC(=O)OCCC(C)C + Cc1ccccc1C
viscosity [mPa·s], 101 kPa
Settings | 298.15 K | 308.15 K
x1 = 0.045 | 0.754 | 0.657
x1 = 0.1503 | 0.745 | 0.659
x1 = 0.2526 | 0.738 | 0.66
x1 = 0.3475 | 0.735 | 0.664
x1 = 0.4468 | 0.735 | 0.67
x1 = 0.4819 | 0.735 | 0.673
x1 = 0.5459 | 0.737 | 0.679
x1 = 0.649 | 0.741 | 0.69
x1 = 0.7465 | 0.749 | 0.702
x1 = 0.8524 | 0.76 | 0.719
x1 = 0.9401 | 0.772 | 0.735

O=C(O)C1CCCCC1 + CCCCCCCCCCO
viscosity [mPa·s], 101 kPa
Settings | 310 K | 320 K
x2 = 0.0377 | 12.1 | 8.54
x2 = 0.0625 | 11.8 | 8.32
x2 = 0.1776 | 10.6 | 7.57
x2 = 0.2753 | 9.61 | 6.94
x2 = 0.4103 | 8.79 | 6.39
x2 = 0.4952 | 8.45 | 6.15
x2 = 0.5659 | 8.15 | 5.94
x2 = 0.6678 | 7.86 | 5.72
x2 = 0.7657 | 7.7 | 5.6
x2 = 0.8462 | 7.48 | 5.48
x2 = 0.9063 | 7.43 | 5.36
x2 = 0.9593 | 7.41 | 5.3

CCCOCC(C)OCC(C)O (stereo not given) + CCO
viscosity [mPa·s], 101.33 kPa
Settings | 298.15 K | 308.15 K | 318.15 K
x1 = 0.05 | 1.27 | 1.046 | 0.872
x1 = 0.1 | 1.446 | 1.181 | 0.978
x1 = 0.15 | 1.621 | 1.315 | 1.081
x1 = 0.2 | 1.799 | 1.446 | 1.18
x1 = 0.25 | 1.994 | 1.572 | 1.278
x1 = 0.3 | 2.144 | 1.706 | 1.374
x1 = 0.3501 | 2.322 | 1.83 | 1.468
x1 = 0.4 | 2.485 | 1.944 | 1.55
x1 = 0.4501 | 2.643 | 2.055 | 1.631
x1 = 0.5 | 2.795 | 2.163 | 1.705
x1 = 0.55 | 2.942 | 2.27 | 1.777
x1 = 0.6 | 3.081 | 2.367 | 1.842
x1 = 0.6497 | 3.218 | 2.463 | 1.905
x1 = 0.6996 | 3.343 | 2.55 | 1.965
x1 = 0.7496 | 3.475 | 2.627 | 2.02
x1 = 0.8 | 3.593 | 2.702 | 2.081
x1 = 0.8499 | 3.704 | 2.764 | 2.131
x1 = 0.8999 | 3.807 | 2.839 | 2.177
x1 = 0.95 | 3.896 | 2.906 | 2.215

CCCOCC(C)OCC(C)O (stereo not given) + CCCCCO
298.15 K, 101 kPa
Settings | viscosity [mPa·s]
x1 = 0.0566 | 3.194
x1 = 0.1564 | 3.499
x1 = 0.2104 | 3.49
x1 = 0.2577 | 3.486
x1 = 0.3103 | 3.484
x1 = 0.3524 | 3.483
x1 = 0.4027 | 3.481
x1 = 0.4592 | 3.494
x1 = 0.5107 | 3.516
x1 = 0.5585 | 3.545
x1 = 0.6219 | 3.59
x1 = 0.6862 | 3.64
x1 = 0.7322 | 3.684
x1 = 0.7995 | 3.733
x1 = 0.9032 | 3.807
x1 = 0.9629 | 3.849
x2 = 0.0139 | 3.867
